Data on five molecules can be found in patent US10836763B2, “5 to 7 membered heterocyclic amides as JAK inhibitors” (priority 2018, dated 2020).

Data set [1] can be described thus: Lung S9 metabolism. Format: in vitro ADME, human. The note with it: for Compound Remaining at 60 min (%) / microsomal CLint at 1 µM: human lung S9, 1 μM compound, 1 mg/mL S9 protein, NADPH and PAPS; for microsomal CLint at 1 µM: lung S9 fraction, pH 7.4, read-out: Clearance; for Sulfate Appearance: qualitative, O-sulfate metabolite peak in human lung S9. The method, then:
Assay 5: Lung S9 Metabolism […] Lung S9 fractions from human (lot 1410245) were purchased from XenoTech LLC (Lenexa, Kans.). NADPH (Sigma Aldrich, N1630) and 3-phosphoadenosine 5-phosphosulfate (PAPS) (Sigma Aldrich, A1651) were purchased from Sigma Aldrich (St. Louis, Mo.). Acetonitrile and water were obtained from VWR (Radnor, Pa.) and were of HPLC grade or better. Raloxifene and formic acid was purchased from Sigma Aldrich (St. Louis, Mo.). Lung S9 incubations were performed in a water bath at 37° C. in a 96-well polypropylene plate. […] All samples were centrifuged at 2250 g for 10 minutes at 5° C. Supernatant (50 μL) was taken from the centrifuged samples and diluted into 100 μL HPLC water containing internal standard. […] Mobile Phase A consisted of Water+0.2% formic acid and Mobile Phase B consisted of acetonitrile+0.2% formic acid. Peak integration was accomplished using Gubbs GMSU software (Gubbs Inc., Alpharetta, Ga.). For each sample, peak area ratios were calculated by dividing the analyte peak area by the internal standard peak area. […] Determination of sulfate metabolite formation was made qualitatively by observation of early-eluting peak in the parent ion channel which, based on historical internal data, corresponded to the O-sulfate metabolite of each parent compound.

Data set [2] deals with Tyk2 (Homo sapiens (Human), UniProt P29597). Briefly: Biochemical JAK kinase assay (LanthaScreen), Tyk2. The note with it: ATP at Km 10 μM; pIC50 converted with Cheng-Prusoff. How it is done: (§1) Assay 1: Biochemical JAK Kinase Assays
Sequence of Tyk2 (P29597 whole entry): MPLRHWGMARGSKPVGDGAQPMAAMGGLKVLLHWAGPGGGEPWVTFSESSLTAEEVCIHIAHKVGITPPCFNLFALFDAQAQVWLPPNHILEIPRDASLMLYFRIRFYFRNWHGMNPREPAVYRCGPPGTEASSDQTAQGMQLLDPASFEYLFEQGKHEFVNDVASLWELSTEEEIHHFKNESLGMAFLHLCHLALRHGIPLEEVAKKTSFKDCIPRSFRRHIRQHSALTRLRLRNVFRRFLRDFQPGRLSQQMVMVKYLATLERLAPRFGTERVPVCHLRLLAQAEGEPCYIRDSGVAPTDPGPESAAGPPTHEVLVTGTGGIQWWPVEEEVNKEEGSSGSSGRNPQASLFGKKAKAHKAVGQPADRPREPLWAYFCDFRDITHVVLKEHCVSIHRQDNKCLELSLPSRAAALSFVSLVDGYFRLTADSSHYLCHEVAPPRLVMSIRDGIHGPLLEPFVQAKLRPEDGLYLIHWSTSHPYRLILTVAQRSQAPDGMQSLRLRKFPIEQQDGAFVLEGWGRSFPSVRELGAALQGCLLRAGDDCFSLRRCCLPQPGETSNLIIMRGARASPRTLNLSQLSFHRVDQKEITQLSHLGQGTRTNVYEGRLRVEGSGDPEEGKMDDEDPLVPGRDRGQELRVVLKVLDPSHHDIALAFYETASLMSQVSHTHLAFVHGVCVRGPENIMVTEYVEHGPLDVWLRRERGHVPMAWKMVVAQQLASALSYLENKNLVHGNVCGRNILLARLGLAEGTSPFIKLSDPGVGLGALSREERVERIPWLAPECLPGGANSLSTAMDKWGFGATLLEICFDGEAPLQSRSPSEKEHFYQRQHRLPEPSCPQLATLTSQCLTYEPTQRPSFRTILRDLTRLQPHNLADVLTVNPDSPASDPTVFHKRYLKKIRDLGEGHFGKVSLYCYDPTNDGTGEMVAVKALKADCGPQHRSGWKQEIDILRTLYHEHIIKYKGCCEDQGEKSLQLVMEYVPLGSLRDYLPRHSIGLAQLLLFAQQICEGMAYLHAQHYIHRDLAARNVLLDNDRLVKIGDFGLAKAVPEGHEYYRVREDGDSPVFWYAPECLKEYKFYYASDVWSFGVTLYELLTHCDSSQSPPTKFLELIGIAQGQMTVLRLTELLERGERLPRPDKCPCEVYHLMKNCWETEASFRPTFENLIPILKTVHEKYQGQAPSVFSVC
(§2) A panel of four LanthaScreen JAK biochemical assays (JAK1, 2, 3 and Tyk2) were carried in a common kinase reaction buffer (50 mM HEPES, pH 7.5, 0.01% Brij-35, 10 mM MgCl2, and 1 mM EGTA). Recombinant GST-tagged JAK enzymes and a GFP-tagged STAT1 peptide substrate were obtained from Life Technologies.
(§3) Serially diluted compounds were pre-incubated with each of the four JAK enzymes and the substrate in white 384-well microplates (Corning) at ambient temperature for 1 h. ATP was subsequently added to initiate the kinase reactions in 10 μL total volume, with 1% DMSO. […] Kinase reactions were allowed to proceed for 1 hour at ambient temperature before a 10 μL preparation of EDTA (10 mM final concentration) and Tb-anti-pSTAT1 (pTyr701) antibody (Life Technologies, 2 nM final concentration) in TR-FRET dilution buffer (Life Technologies) was added. The plates were allowed to incubate at ambient temperature for 1 h before being read on the EnVision reader (Perkin Elmer). Emission ratio signals (520 nm/495 nm) were recorded and utilized to calculate the percent inhibition values based on DMSO and background controls.
(§4) For dose-response analysis, percent inhibition data were plotted vs. compound concentrations, and IC50 values were determined from a 4-parameter robust fit model with the Prism software (GraphPad Software). Results were expressed as pIC50 (negative logarithm of IC50) and subsequently converted to pKi (negative logarithm of dissociation constant, Ki) using the Cheng-Prusoff equation.
Background: In TR-FRET formats the signal depends on donor and acceptor labels being close together.

Data set [3] deals with JAK2 (Homo sapiens (Human), UniProt O60674). Put plainly: Biochemical JAK kinase assay (LanthaScreen), JAK2. The note with it: ATP at Km 3 μM; pIC50 converted with Cheng-Prusoff. How it is done: as §1, §2, §3, §4
Sequence of JAK2 (O60674 whole entry): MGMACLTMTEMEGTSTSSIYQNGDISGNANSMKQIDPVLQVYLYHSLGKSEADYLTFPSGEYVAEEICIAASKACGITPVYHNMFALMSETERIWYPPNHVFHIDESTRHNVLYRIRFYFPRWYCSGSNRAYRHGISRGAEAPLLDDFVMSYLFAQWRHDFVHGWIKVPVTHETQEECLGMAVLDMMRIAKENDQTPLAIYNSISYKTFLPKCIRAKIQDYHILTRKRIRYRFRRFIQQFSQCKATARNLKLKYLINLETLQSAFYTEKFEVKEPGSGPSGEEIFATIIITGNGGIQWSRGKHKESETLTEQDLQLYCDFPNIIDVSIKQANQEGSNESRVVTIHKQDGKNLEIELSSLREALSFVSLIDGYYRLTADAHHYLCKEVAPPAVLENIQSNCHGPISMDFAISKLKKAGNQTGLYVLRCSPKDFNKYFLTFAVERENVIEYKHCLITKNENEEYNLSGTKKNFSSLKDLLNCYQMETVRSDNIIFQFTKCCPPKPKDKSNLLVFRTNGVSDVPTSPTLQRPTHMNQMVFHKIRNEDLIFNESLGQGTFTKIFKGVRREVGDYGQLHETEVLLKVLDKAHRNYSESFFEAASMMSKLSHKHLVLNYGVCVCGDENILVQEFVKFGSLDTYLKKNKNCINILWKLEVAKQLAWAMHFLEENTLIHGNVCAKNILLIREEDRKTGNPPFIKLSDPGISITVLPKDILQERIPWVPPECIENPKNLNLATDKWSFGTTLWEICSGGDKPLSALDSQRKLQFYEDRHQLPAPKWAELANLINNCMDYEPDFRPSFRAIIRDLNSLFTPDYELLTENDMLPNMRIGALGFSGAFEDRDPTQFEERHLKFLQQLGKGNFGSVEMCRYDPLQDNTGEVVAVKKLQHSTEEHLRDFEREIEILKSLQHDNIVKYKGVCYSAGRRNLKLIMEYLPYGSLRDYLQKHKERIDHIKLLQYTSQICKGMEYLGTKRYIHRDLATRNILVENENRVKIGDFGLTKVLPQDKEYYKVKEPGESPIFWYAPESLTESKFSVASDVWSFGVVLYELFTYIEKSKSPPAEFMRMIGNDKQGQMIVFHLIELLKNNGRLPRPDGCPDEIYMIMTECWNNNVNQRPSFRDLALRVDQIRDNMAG

Molecules are shown by their SMILES.

As for `CCCN1Cc2[nH]c(-c3n[nH]c4cc(-c5cc(F)c(O)cc5CC)ccc34)nc2C[C@H]1C(=O)N1CCN(CCO)CC1` [Compound C-1, (S)-(2-(6-(2-ethyl-5-fluoro-4-hydroxyphenyl)-1H-indazol-3-yl)-5-propyl-4,5,6,7-tetrahydro-3H-imidazo[4,5-c]pyridin-6-yl)(4-(2-hydroxyethyl)piperazin-1-yl)methanone, reference compound], in data set [1], the “Compound Remaining at 60 min (%)” value was determined as 29%, the microsomal CLint at 1 µM worked out at 20.8 µL/min/mg and the “Sulfate Appearance” value is “Yes”. The “Tyk2 pKi” value in data set [2] stood at 9.1. The “JAK2 pKi” value in data set [3] is recorded as 10.5.
Regarding `CCCN1Cc2[nH]c(-c3n[nH]c4cc(-c5cc(F)c(O)cc5CC)ccc34)nc2C[C@H]1C(=O)N1C[C@@H]2C[C@H]1CN2C` [Compound C-2, ((S)-2-(6-(2-ethyl-5-fluoro-4-hydroxyphenyl)-1H-indazol-3-yl)-5-propyl-4,5,6,7-tetrahydro-3H-imidazo[4,5-c]pyridin-6-yl)((1S,4S)-5-methyl-2,5-diazabicyclo-[2.2.1]heptan-2-yl)methanone, reference compound], in data set [1], the “Compound Remaining at 60 min (%)” value is given as 3%, the microsomal CLint at 1 µM was 61 µL/min/mg and the “Sulfate Appearance” value was “Yes”. The “Tyk2 pKi” value in data set [2] came out at 9.5. In data set [3], the “JAK2 pKi” value is on record as 10.8.
On the same counts, the results for `CCc1cc(O)c(F)cc1-c1ccc2c(-c3nc4c([nH]3)CN(C)[C@H](C(=O)N3CCN(C)C[C@@H]3C)C4)n[nH]c2c1` [Compound C-3, ((S)-2,4-dimethylpiperazin-1-yl)((S)-2-(6-(2-ethyl-5-fluoro-4-hydroxyphenyl)-1H-indazol-3-yl)-5-methyl-4,5,6,7-tetrahydro-3H-imidazo[4,5-c]pyridin-6-yl)methanone, reference compound] are 14%, 33.2 µL/min/mg, “Yes”, 9.3 and 10.5.
In the same order, the values of `CCc1cc(O)c(F)cc1-c1ccc2c(-c3nc4c([nH]3)CN(C(C)C)[C@H](C(=O)N3CCCN(C)CC3)C4)n[nH]c2c1` [Compound C-4, (S)-(2-(6-(2-ethyl-5-fluoro-4-hydroxyphenyl)-1H-indazol-3-yl)-5-isopropyl-4,5,6,7-tetrahydro-3H-imidazo[4,5-c]pyridin-6-yl)(4-methyl-1,4-diazepan-1-yl)methanone, reference compound] are 4%, 53.4 µL/min/mg, “Yes”, 9.3 and 10.6.
As for `CCc1cc(O)c(F)cc1-c1ccc2c(-c3nc4c([nH]3)CN(C)[C@H](C(=O)N3CCN(CCO)C[C@H]3C)C4)n[nH]c2c1` [Compound C-5, ((S)-2-(6-(2-ethyl-5-fluoro-4-hydroxyphenyl)-1H-indazol-3-yl)-5-methyl-4,5,6,7-tetrahydro-3H-imidazo[4,5-c]pyridin-6-yl)((R)-4-(2-hydroxyethyl)-2-methyl-piperazin-1-yl)methanone, reference compound], in data set [1], the “Compound Remaining at 60 min (%)” value stood at 8%, the microsomal CLint at 1 µM was determined as 42.2 µL/min/mg and the “Sulfate Appearance” value is recorded as “Yes”. Further, the “Tyk2 pKi” value in data set [2] came out at 9.5. The “JAK2 pKi” value in data set [3] is reported as 10.7.
